Test system: non-constipated IBS subjects
Test: Study S241.2.113: Phase II dose-ranging efficacy
Type: in vivo, human
Method: Study S241.2.113 was a Phase II, double-blind, placebo-controlled, randomized, multi-center, parallel-group, dose-ranging study to investigate the efficacy and safety of cilansetron in nonconstipated subjects with irritable bowel syndrome. The study was conducted in 55 study centers in Canada, France, Austria, Germany, United Kingdom, Italy, Belgium, and The Netherlands. A total of at least 88 subjects per treatment group evaluable for efficacy were planned, in total 440 to complete the study; 776 subjects were screened; 485 subjects were randomized (479 in the safety sample). Diagnosis and main criteria for inclusion were IBS subjects satisfying the Rome criteria (1992) and minimum abdominal pain/discomfort, stool frequency and consistency determined during the run-in period.
Subjects were treated with cilansetron 1 mg, 2 mg, 4 mg and 16 mg tablets given orally TID or matching placebo tablets given orally TID for 12 weeks.
The primary efficacy parameter was the weekly global question concerning adequate relief of IBS symptoms (abdominal pain/discomfort, abnormal bowel habits). A responder is a subject who responded “Yes” at least 50% of the time after randomization, with a minimum treatment duration of four weeks.

`Cc1nccn1C[C@H]1CCc2c(c3cccc4c3n2CCC4)C1=O` [Cilansetron, (R)-(−)-4,5,6,8,9,10-hexahydro-10-[(2-methyl-1H-imidazol-1-yl)methyl]-11H-pyrido-[3,2,1-jk]-carbazol-11-one] was tested, and the “Responder rate higher than placebo” value (1 mg TID) was 11%, the “Responder rate better than placebo” value (2 mg TID) was 22% and the “Responder rate higher than placebo” value (4 mg TID) was 8%. The “Responder rate higher than placebo” value (16 mg TID) was 18%.
